Read-outs that look alike come from different tables or passages of the source.
How the values were obtained:
[1] = system: human non-small cell lung cancer NCI-H358 xenograft; experiment: Antitumor activity in NCI-H358 xenograft mouse model; format: in vivo, NPSG mice; details: for TGI(%) / Tumor volume (mm^3) (day 14): NPSG mice, gavage once daily 10 mg/kg, day 14
Description: Tumor growth inhibitory activity of the compounds of the present disclosure was evaluated and verified in a human non-small cell lung cancer NCI-H358 xenograft mouse model.
[Test materials]: NCI-H358 cell line carrying KRAS G12C mutation, provided by KYinno Biotechnology Co., Ltd. (from ATCC, Cat #CRL-5807). NPSG mice, female, provided by Beijing Phenotek Biotechnologies Inc.
[Experimental procedure]: 5×10^6 NCI-H358 cells (containing 50% Matrigel) were inoculated subcutaneously on the right flank of 6-8 weeks old female NPSG mice, with the inoculation volume of 0.1 mL. When the average tumor size reached 160-220 mm^3, the mice were grouped randomly according to tumor size and body weight, upon which the mice were treated with compounds on the same day designated as Day 0. The mice were gavage administrated once daily at 10 mg/kg or solvent control (50 mM citrate buffer containing 10% cyclodextrin, pH5.0). Tumor volume and body weight were measured twice a week during the study. The tumor volume was calculated by the formula V=D×d×d/2, wherein D and d refer to the long and short diameter of the tumor respectively.
In addition, using the same materials and procedures as above, the tumor inhibition activity of Example 9 at different doses in the above-mentioned non-small cell lung cancer mouse model and its effect on body weight were also investigated.

[2] = molecular target: T1, CYP1A2 (Homo sapiens, UniProt P05177); experiment: CYP inhibition in human liver microsomes; format: in vitro ADME; details: pH 7.4, read-out: CYP inhibition rate (%) 1A2
T1 construct: Human liver microsomes (Corning, Cat #452161); tissue Corning 452161; host or cells: human liver microsomes
T1 sequence (P05177 1-516): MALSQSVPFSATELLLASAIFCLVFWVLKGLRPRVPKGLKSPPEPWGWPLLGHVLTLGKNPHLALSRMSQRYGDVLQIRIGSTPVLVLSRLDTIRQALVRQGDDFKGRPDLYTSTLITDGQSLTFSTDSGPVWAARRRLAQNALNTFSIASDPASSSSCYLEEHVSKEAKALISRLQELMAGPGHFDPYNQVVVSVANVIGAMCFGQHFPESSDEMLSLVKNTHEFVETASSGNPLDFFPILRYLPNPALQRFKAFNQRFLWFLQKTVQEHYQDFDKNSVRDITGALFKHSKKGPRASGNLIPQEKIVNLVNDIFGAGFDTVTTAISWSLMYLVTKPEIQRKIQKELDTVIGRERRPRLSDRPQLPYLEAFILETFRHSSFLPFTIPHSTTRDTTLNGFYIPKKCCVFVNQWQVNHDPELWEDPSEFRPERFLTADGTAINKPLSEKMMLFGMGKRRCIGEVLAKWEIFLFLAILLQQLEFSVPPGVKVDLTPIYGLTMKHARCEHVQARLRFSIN
From the text: (§1) The inhibitory effect of the compounds of the present disclosure on the cytochrome P450 enzyme system was investigated in this assay.
(§2) [Test materials]: Human liver microsomes (Corning, Cat #452161); Reduced nicotinamide adenine dinucleotide phosphate (NADPH, MCE, Cat #HY-F0003/CS-4998); Phenacetin, Diclofenac, α-naphthoflavone, Omeprazole and Ketoconazole were purchased from TCI; S-Mephenytoin and testosterone were purchased from CAYMAN; Midazolam was purchased from Bioreclamation IVT; Quinidine was purchased from Damas-beta; Sulfaphenazole was purchased from MCE; Bufuralol was purchased from TRC.
(§3) [Experimental procedure]: Preparation of 0.1M potassium phosphate buffer (K-buffer): 100 mM potassium phosphate buffer (K-buffer) was prepared with potassium dihydrogen phosphate and dipotassium hydrogen phosphate, and adjusted to pH 7.4.
(§4) Preparation of 400× test compound and reference inhibitor solutions: 8 μL of 10 mM stock solution of the test compounds was mixed with 12 μL of acetonitrile. Preparation of inhibitor cocktail solution for CYP1A2, CYP2C9 and CYP2D6: […] of 1 mM α-naphthoflavone, 10 µL of 40 mM Sulfaphenazole, 10 μL of 10 mM Quinidine and 8 μL DMSO were mixed. Preparation of inhibitor cocktail solution for CYP3A4 and CYP2C19: 8 μL of DMSO solution was mixed with 12 μL of acetonitrile.
(§5) Preparation of 4×NADPH potassium phosphate solution: 66.7 mg of NADPH was added to 10 mL of K-buffer pH7.4. Preparation of 4× substrate potassium phosphate solution: the different substrates were prepared to 4-fold concentration test solutions with 10 mL 0.1M K-buffer according to the concentration requirements.
(§6) Preparation of 0.2 mg/mL human liver microsomes (HLM) solution: […] of 20 mg/mL human liver microsomes was added to […] K-buffer, and the solution was stored in ice bath until use.
(§7) 600 μL of 0.2 mg/mL HLM was added to a 96-well plate, followed by the addition of 3 μL of a 400-fold test compound solution; 200 μL of 0.2 mg/mL HLM was added to a 96-well plate, and 1 μL of the diluted positive control inhibitor solution was added. 30 μL of the compound solution mixed with human liver microsomes was added into a 96-well plate, and 15 μL of substrate solution was added then. The solutions obtained above, and the prepared NADPH solution were pre-incubated at 37° C. for 5 min. 15 μL of the pre-warmed NADPH solution was added to the reaction plate, mixed well, to initiate the reaction. The reaction plate was incubated at 37° C., for 5 minutes (3A4), for 10 minutes (1A2, 2C9, 2D6), for 45 minutes (2C19). At the end of the reaction, 120 μL of acetonitrile containing internal standard was added to quenched the reaction. Samples were vortexed for 10 min, centrifuged at 5594 g for 15 min, and prepared for LC-MS/MS analysis.

[3] = molecular target: T2, CYP2C19 (Homo sapiens, UniProt P33261); experiment: CYP inhibition in human liver microsomes; format: in vitro ADME; details: pH 7.4, read-out: CYP inhibition rate (%) 2C19
T2 construct: Human liver microsomes (Corning, Cat #452161); tissue Corning 452161; host or cells: human liver microsomes
T2 sequence (P33261 whole entry): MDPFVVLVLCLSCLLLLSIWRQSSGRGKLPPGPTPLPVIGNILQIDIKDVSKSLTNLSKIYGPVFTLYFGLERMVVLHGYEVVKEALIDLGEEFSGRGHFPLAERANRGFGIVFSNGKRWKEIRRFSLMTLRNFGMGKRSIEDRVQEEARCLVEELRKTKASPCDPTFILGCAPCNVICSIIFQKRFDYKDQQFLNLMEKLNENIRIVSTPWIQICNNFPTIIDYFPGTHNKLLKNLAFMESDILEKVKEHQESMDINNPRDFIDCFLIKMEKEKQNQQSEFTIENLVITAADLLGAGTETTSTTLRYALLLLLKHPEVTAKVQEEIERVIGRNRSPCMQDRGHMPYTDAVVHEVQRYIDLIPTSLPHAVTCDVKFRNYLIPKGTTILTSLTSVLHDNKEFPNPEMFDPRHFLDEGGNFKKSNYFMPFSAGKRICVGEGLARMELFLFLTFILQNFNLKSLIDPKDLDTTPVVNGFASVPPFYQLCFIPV
From the text: as §1, §2, §3, §4, §5, §6, §7

[4] = molecular target: T3, CYP2C9 (Homo sapiens, UniProt P11712); experiment: CYP inhibition in human liver microsomes; format: in vitro ADME; details: pH 7.4, read-out: CYP inhibition rate (%) 2C9
T3 construct: Human liver microsomes (Corning, Cat #452161); tissue Corning 452161; host or cells: human liver microsomes
T3 sequence (P11712 whole entry): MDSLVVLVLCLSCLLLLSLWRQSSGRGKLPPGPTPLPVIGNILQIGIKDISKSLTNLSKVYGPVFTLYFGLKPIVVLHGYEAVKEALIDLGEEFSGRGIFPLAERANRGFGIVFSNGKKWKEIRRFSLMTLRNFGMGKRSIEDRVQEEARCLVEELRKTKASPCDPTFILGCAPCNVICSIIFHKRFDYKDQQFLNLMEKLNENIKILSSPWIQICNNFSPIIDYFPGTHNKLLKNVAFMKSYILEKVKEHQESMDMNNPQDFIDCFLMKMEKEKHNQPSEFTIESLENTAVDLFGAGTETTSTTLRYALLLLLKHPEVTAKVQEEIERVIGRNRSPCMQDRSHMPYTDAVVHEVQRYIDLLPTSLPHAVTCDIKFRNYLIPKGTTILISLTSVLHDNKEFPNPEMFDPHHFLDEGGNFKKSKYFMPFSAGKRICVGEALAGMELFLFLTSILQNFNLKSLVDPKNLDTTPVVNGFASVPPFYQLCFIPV
From the text: as §1, §2, §3, §4, §5, §6, §7

[5] = molecular target: T4, CYP2D6 (Homo sapiens, UniProt P10635); experiment: CYP inhibition in human liver microsomes; format: in vitro ADME; details: pH 7.4, read-out: CYP inhibition rate (%) 2D6
T4 construct: Human liver microsomes (Corning, Cat #452161); tissue Corning 452161; host or cells: human liver microsomes
T4 sequence (P10635 whole entry): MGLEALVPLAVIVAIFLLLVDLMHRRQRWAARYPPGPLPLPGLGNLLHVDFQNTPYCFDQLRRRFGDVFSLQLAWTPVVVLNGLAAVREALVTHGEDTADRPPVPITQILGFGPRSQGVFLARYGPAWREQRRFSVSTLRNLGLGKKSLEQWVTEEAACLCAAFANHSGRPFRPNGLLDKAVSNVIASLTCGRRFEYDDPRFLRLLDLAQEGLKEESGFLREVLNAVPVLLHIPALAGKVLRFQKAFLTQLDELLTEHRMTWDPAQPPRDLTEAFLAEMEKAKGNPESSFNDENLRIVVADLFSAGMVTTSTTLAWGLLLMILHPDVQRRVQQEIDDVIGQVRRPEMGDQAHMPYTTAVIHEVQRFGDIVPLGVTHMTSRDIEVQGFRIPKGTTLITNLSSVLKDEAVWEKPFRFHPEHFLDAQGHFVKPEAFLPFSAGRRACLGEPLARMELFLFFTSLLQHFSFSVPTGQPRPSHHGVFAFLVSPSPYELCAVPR
From the text: as §1, §2, §3, §4, §5, §6, §7

[6] = molecular target: T5, CYP3A4 (Homo sapiens, UniProt P08684); experiment: CYP inhibition in human liver microsomes; format: in vitro ADME
T5 construct: Human liver microsomes (Corning, Cat #452161); tissue Corning 452161; host or cells: human liver microsomes
T5 sequence (P08684 whole entry): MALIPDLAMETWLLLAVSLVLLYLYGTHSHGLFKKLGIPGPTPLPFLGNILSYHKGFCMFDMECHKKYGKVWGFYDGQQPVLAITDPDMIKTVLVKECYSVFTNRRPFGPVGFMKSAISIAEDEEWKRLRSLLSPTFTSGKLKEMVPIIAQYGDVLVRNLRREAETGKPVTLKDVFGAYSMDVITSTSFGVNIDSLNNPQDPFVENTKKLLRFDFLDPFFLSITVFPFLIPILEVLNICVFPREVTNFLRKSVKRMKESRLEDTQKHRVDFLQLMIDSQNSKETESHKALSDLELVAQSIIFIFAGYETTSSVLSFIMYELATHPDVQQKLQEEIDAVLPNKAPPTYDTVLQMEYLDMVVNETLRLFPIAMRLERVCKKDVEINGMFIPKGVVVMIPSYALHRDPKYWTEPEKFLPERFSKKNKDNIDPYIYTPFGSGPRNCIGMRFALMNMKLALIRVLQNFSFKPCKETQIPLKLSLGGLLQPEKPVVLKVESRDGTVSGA
From the text: as §1, §2, §3, §4, §5, §6, §7

[7] = pH 7.4, probe midazolam, substrate midazolam, read-out: CYP inhibition rate (%) CYP3A4 (midazolam)
[8] = pH 7.4, probe testosterone, substrate testosterone, read-out: CYP inhibition rate (%) CYP3A4 (testosterone)

Row | inhibition at 10 min, 10 µM [2] | inhibition at 45 min, 10 µM [3] | inhibition at 10 min, 10 µM [4] | inhibition at 10 min, 10 µM [5] | inhibition at 5 min, 10 µM [6, 7] | inhibition at 5 min, 10 µM [6, 8] | SMILES | TGI(%) [1] | Tumor volume (mm^3) (day 14) [1] | effect on body weight ([1]; different doses, FIG. 1) | tumor inhibition activity ([1]; different doses, FIG. 1)
1 | 10.3% | 11.1% | 26.2% | 23.7% | 63.7% | 24.8% | C=CC(=O)N1CCN(c2nc(=O)n(-c3c(C)ccnc3C(C)C)c3nc(-c4c(O)cccc4F)c(F)cc23)[C@@H](C)C1 (atropisomer, axis not shown) [AMG510, reference compound] | 66% | 525.1 mm^3 | – | –
2 | 17.6% | 31.2% | 49.9% | 13.8% | 22% | 16.9% | C=CC(=O)N1CCN(c2c(C#N)cnc3c(F)c(-c4ccc(F)c5sc(N)nc45)c(Cl)cc23)C[C@H]1C [Example 8, 4-((R)-4-acryloyl-3-methylpiperazin-1-yl)-7-(2-amino-7-fluorobenzo[d]thiazol-4-yl)-6-chloro-8-fluoroquinoline-3-carbonitrile] | 67% | 519.2 mm^3 | – | –
3 | 13.6% | 34.9% | 42.5% | -11.4% | 24% | 30.9% | C=CC(=O)N1CCN(c2c(C#N)cnc3c(F)c(-c4ccc(F)c5sc(N)nc45)c(Cl)cc23)CC1 [Example 9, 4-(4-Acryloylpiperazin-1-yl)-7-(2-amino-7-fluorobenzo[d]thiazol-4-yl)-6-chloro-8-fluoroquinoline-3-carbonitrile] | – | – | without significant side effects on body weight | excellent tumor inhibition activity
4 | 73% | 74.3% | 52.4% | 32.6% | 11.1% | 10.9% | C=CC(=O)N1CCN(c2ncnc3c(F)c(-c4ccc(F)c5sc(N)nc45)c(Cl)cc23)CC1 [Ref. Comp. A, reference compound] | – | – | – | –

Reference: patent publication US20230406849A1, “KRAS INHIBITORS FOR TREATMENT OF CANCERS” (TYLIGAND BIOSCIENCE (SHANGHAI) LIMITED, priority 2020, published 2023)
